Data reported in patent publication US20230065740A1, “CYCLIN-DEPENDENT KINASE INHIBITORS” (SPV THERAPEUTICS INC., priority 2018, published 2023).

Assays:
CDK4-CYCLIND1 = CDK4-CYCLIND1 (Homo sapiens, UniProt P11802); experiment: Microfluidic LabChip kinase inhibition assay, CDK4-CyclinD1; settings: CDK4 IC50 (μM), Table 2; 200 μM ATP, 1 nM enzyme
CDK6-CYCLIND3 = target: T1, CDK6-CYCLIND3 (Homo sapiens, UniProt Q00534); experiment: Microfluidic LabChip kinase inhibition assay, CDK6-CyclinD3; format: biochemical; settings: Table 2; 300 μM ATP, 2 nM enzyme; read-out: CDK6 IC50
T1 construct: purchased Carna
T1 sequence (Q00534 whole entry): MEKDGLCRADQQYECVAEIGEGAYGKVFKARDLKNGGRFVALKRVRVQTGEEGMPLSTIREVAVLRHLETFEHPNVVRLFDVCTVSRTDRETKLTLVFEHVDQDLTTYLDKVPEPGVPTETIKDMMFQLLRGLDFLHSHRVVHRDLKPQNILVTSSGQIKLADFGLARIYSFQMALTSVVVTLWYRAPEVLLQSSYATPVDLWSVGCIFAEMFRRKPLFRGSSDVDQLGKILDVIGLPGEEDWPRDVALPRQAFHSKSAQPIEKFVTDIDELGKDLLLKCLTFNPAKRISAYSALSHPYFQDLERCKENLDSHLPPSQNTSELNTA
T1 sequence (P30281 whole entry partner): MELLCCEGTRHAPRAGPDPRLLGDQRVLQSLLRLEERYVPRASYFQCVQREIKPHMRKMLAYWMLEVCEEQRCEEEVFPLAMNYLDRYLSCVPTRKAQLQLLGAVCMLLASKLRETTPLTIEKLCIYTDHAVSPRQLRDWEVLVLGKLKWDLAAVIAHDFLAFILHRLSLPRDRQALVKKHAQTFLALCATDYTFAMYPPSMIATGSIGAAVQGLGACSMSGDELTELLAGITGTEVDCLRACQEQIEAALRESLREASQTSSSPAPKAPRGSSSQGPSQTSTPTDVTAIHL

CDK4-CYCLIND1, sequence (P11802 whole entry): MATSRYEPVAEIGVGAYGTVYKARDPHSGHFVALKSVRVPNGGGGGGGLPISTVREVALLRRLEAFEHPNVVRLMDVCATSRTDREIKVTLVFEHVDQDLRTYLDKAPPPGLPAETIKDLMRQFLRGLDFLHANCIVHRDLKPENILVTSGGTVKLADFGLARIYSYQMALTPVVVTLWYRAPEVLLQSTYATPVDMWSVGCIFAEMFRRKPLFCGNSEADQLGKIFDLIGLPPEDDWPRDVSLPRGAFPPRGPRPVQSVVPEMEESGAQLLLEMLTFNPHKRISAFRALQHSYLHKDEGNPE
CDK4-CYCLIND1, sequence (P24385 whole entry partner): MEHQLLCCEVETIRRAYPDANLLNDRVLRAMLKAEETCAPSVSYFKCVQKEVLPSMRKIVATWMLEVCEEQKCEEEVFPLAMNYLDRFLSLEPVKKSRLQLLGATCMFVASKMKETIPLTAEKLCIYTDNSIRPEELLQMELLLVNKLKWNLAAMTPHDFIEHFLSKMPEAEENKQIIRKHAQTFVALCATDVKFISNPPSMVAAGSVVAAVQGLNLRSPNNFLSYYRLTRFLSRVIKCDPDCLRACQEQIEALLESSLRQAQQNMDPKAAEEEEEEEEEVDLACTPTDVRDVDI

| SMILES | IC50 (CDK4-CYCLIND1) | IC50 (CDK6-CYCLIND3) |
| --- | --- | --- |
| CN1CCC2(Cc3cnc(Nc4ccc(N5CCNCC5)cn4)nc3N2C2CCCC2)C1=O (stereo not shown) [Compound C19, 7′-cyclopentyl-1-methyl-2′-((5-(piperazin-1-yl)pyridin-2-yl)amino)-5′,7′-dihydrospiro[pyrrolidine-3,6′-pyrrolo[2,3-d]pyrimidin]-2-one] | > 30 µM | > 30 µM |
| CN1CCN(c2ccc(Nc3ncc4c(n3)N(C3CCCC3)C3(CCN(C)C3=O)C4)nc2)CC1 (stereo not shown) [Compound C20, 7′-cyclopentyl-1-methyl-2′-((5-(4-methylpiperazin-1-yl)pyridin-2-yl)amino)-5′,7′-dihydrospiro[pyrrolidine-3,6′-pyrrolo[2,3-d]pyrimidin]-2-one] | > 30 µM | > 30 µM |
| CN1CCN(c2ccc(Nc3ncc4c(n3)N(C3CCCC3)C3(CCN(Cc5ccccc5)C3=O)C4)cc2)CC1 (stereo not shown) [Compound C24, 1-benzyl-7′-cyclopentyl-2′-((4-(4-methylpiperazin-1-yl)phenyl)amino)-5′,7′-dihydrospiro[pyrrolidine-3,6′-pyrrolo[2,3-d]pyrimidin]-2-one] | 12.3 µM | > 30 µM |
| CN1CCCC2(Cc3cnc(Nc4ccc(N5CCNCC5)cn4)nc3N2C2CCCC2)C1=O (stereo not shown) [Compound C25, 7′-cyclopentyl-1-methyl-2′-((5-(piperazin-1-yl)pyridin-2-yl)amino)-5′,7′-dihydrospiro[piperidine-3,6′-pyrrolo[2,3-d]pyrimidin]-2-one] | > 30 µM | > 30 µM |
| CN1CCN(c2ccc(Nc3ncc4c(n3)N(C3CCCC3)C3(CCCN(C)C3=O)C4)nc2)CC1 (stereo not shown) [Compound C26, 7′-cyclopentyl-1-methyl-2′-((5-(4-methylpiperazin-1-yl)pyridin-2-yl)amino)-5′,7′-dihydrospiro[piperidine-3,6′-pyrrolo[2,3-d]pyrimidin]-2-one] | > 30 µM | > 30 µM |
| O=C1N(Cc2ccccc2)CCCC12Cc1cnc(Nc3ccc(N4CCNCC4)cn3)nc1N2C1CCCC1 (stereo not shown) [Compound C27, 1-benzyl-7′-cyclopentyl-2′-((5-(piperazin-1-yl)pyridin-2-yl)amino)-5′,7′-dihydrospiro[piperidine-3,6′-pyrrolo[2,3-d]pyrimidin]-2-one] | > 30 µM | > 30 µM |
| O=C1NCCC12Cc1cnc(Nc3ccc(N4CCNCC4)cn3)nc1N2C1CCCC1 (stereo not shown) [Compound C33, 7′-cyclopentyl-2′-((5-(piperazin-1-yl)pyridin-2-yl)amino)-5′,7′-dihydrospiro[pyrrolidine-3,6′-pyrrolo[2,3-d]pyrimidin]-2-one] | 0.694 µM | 2.08 µM |
| CN1CCN(c2ccc(Nc3ncc4c(n3)N(C3CCCC3)C3(CCNC3=O)C4)nc2)CC1 (stereo not shown) [Compound C34, 7′-cyclopentyl-2′-((5-(4-methylpiperazin-1-yl)pyridin-2-yl)amino)-5′,7′-dihydrospiro[pyrrolidine-3,6′-pyrrolo[2,3-d]pyrimidin]-2-one] | 1.16 µM | 3.7 µM |
| O=C1NCCCC12Cc1cnc(Nc3ccc(N4CCNCC4)cn3)nc1N2C1CCCC1 (stereo not shown) [Compound C35, 7′-cyclopentyl-2′-((5-(piperazin-1-yl)pyridin-2-yl)amino)-5′,7′-dihydrospiro[piperidine-3,6′-pyrrolo[2,3-d]pyrimidin]-2-one] | 19.6 µM | > 30 µM |
| CN1CCN(c2ccc(Nc3ncc4c(n3)N(C3CCCC3)C3(CCCNC3=O)C4)nc2)CC1 (stereo not shown) [Compound C36, 7′-cyclopentyl-2′-((5-(4-methylpiperazin-1-yl)pyridin-2-yl)amino)-5′,7′-dihydrospiro[piperidine-3,6′-pyrrolo[2,3-d]pyrimidin]-2-one] | 29.3 µM | > 30 µM |
| CC(C)N1CCN(c2ccc(Nc3ncc4c(n3)N(C3CCCC3)C3(CCCNC3=O)C4)nc2)CC1 (stereo not shown) [Compound C37, 7′-cyclopentyl-2′-((5-(4-isopropylpiperazin-1-yl)pyridin-2-yl)amino)-5′,7′-dihydrospiro[piperidine-3,6′-pyrrolo[2,3-d]pyrimidin]-2-one] | > 30 µM | > 30 µM |
| CC(C)N1CCN(c2ccc(Nc3ncc4c(n3)N(C3CCCC3)C3(CCNC3=O)C4)nc2)CC1 (stereo not shown) [Compound C38, 7′-cyclopentyl-2′-((5-(4-isopropylpiperazin-1-yl)pyridin-2-yl)amino)-5′,7′-dihydrospiro[pyrrolidine-3,6′-pyrrolo[2,3-d]pyrimidin]-2-one] | 0.631 µM | 2.99 µM |

Now from value to compound:

| IC50 (CDK4-CYCLIND1) | IC50 (CDK6-CYCLIND3) | SMILES |
| --- | --- | --- |
| > 30 µM | > 30 µM | O=C1N(Cc2ccccc2)CCC12Cc1cnc(Nc3ccc(N4CCNCC4)cn3)nc1N2C1CCCC1 (stereo not shown) [Compound C21] |
| 16.5 µM | > 30 µM | CN1CCN(c2ccc(Nc3ncc4c(n3)N(C3CCCC3)C3(CCN(Cc5ccccc5)C3=O)C4)nc2)CC1 (stereo not shown) [Compound C22, 1-benzyl-7′-cyclopentyl-2′-((5-(4-methylpiperazin-1-yl)pyridin-2-yl)amino)-5′,7′-dihydrospiro[pyrrolidine-3,6′-pyrrolo[2,3-d]pyrimidin]-2-one] |
| 17.7 µM | > 30 µM | CC(C)N1CCN(c2ccc(Nc3ncc4c(n3)N(C3CCCC3)C3(CCN(Cc5ccccc5)C3=O)C4)nc2)CC1 (stereo not shown) [Compound C23, 1-benzyl-7′-cyclopentyl-2′-((5-(4-isopropylpiperazin-1-yl)pyridin-2-yl)amino)-5′,7′-dihydrospiro[pyrrolidine-3,6′-pyrrolo[2,3-d]pyrimidin]-2-one] |
| > 30 µM | > 30 µM | CN1CCN(c2ccc(Nc3ncc4c(n3)N(C3CCCC3)C3(CCCN(Cc5ccccc5)C3=O)C4)nc2)CC1 (stereo not shown) [Compound C28, 1-benzyl-7′-cyclopentyl-2′-((5-(4-methylpiperazin-1-yl)pyridin-2-yl)amino)-5′,7′-dihydrospiro[piperidine-3,6′-pyrrolo[2,3-d]pyrimidin]-2-one] |
| 7.78 µM | > 30 µM | COc1ccc(CN2CCC3(Cc4cnc(Nc5ccc(N6CCNCC6)cn5)nc4N3C3CCCC3)C2=O)cc1 (stereo not shown) [Compound C29, 7′-cyclopentyl-1-(4-methoxybenzyl)-2′-((5-(piperazin-1-yl)pyridin-2-yl)amino)-5′,7′-dihydrospiro[pyrrolidine-3,6′-pyrrolo[2,3-d]pyrimidin]-2-one] |
| 8.21 µM | > 30 µM | COc1ccc(CN2CCC3(Cc4cnc(Nc5ccc(N6CCN(C)CC6)cn5)nc4N3C3CCCC3)C2=O)cc1 (stereo not shown) [Compound C30, 7′-cyclopentyl-1-(4-methoxybenzyl)-2′-((5-(4-methylpiperazin-1-yl)pyridin-2-yl)amino)-5′,7′-dihydrospiro[pyrrolidine-3,6′-pyrrolo[2,3-d]pyrimidin]-2-one] |
| 7.28 µM | > 30 µM | COc1ccc(CN2CCC3(Cc4cnc(Nc5ccc(N6CCN(C(C)C)CC6)cn5)nc4N3C3CCCC3)C2=O)cc1 (stereo not shown) [Compound C31, 7′-cyclopentyl-2′-((5-(4-isopropylpiperazin-1-yl)pyridin-2-yl)amino)-1-(4-methoxybenzyl)-5′,7′-dihydrospiro[pyrrolidine-3,6′-pyrrolo[2,3-d]pyrimidin]-2-one] |
| 10.5 µM | > 30 µM | COc1ccc(CN2CCC3(Cc4cnc(Nc5ccc(OCCN(C)C)cn5)nc4N3C3CCCC3)C2=O)cc1 (stereo not shown) [Compound C32, 7′-cyclopentyl-2′-((5-(2-(dimethylamino)ethoxy)pyridin-2-yl)amino)-1-(4-methoxybenzyl)-5′,7′-dihydrospiro[pyrrolidine-3,6′-pyrrolo[2,3-d]pyrimidin]-2-one] |
